Measurements from ChEMBL document CHEMBL1201862, “PubChem BioAssay data set” (2004).
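Where inhibition never reached the appropriate level, the endpoint shown equals the highest concentration tested. Otherwise, values were interpolated linearly from a five-concentration, 48-hour dose response in 96-well plates. Abbreviation: GI50, concentration required for 50% inhibition of growth.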 The source made the active and inactive calls. No stated cut-off is given here; in the data, active = GI50 up to about 1.1 µM and inactive = higher.

Legend:
Assay in all cases: growth of human tumour cells (NCI), 48 h
[1] = test system: RXF 631
[2] = test system: BT-549
[3] = test system: DU-145
[4] = test system: Hs-578T
[5] = test system: MDA-MB-231
[6] = test system: MDA-MB-435
[7] = test system: MDA-N
[8] = test system: T47D

Q: How did the GI50 [1] turn out when `COc1ccc(N2C(=O)/C(=C(\C)c3cc4ccccc4oc3=O)N=C2c2cc([N+](=O)[O-])ccc2Cl)cc1` was run?
A: Its GI50 is 36.6 µM (inactive).

Q: `CCOP(=O)(COCCn1ncc(=O)[nH]c1=O)OCC` was tested. Which GI50 [2] did it give?
A: The GI50 was > 100 µM (inactive).

Q: And the GI50 [3]?
A: The GI50 was > 100 µM (inactive).

Q: What about the GI50 [4] of the same compound?
A: Its GI50 is > 100 µM (inactive).

Q: What about the GI50 [5] of the same compound?
A: Its GI50 is > 100 µM (inactive).

Q: What about the GI50 [6] of the same compound?
A: Its GI50 is > 100 µM (inactive).

Q: What about the GI50 [7] of the same compound?
A: The GI50 was > 100 µM (inactive).

Q: And the GI50 [8]?
A: Its GI50 is > 100 µM (inactive).

Q: How did the GI50 [1] turn out when `CN1COCN/C1=N/C#N` was run?
A: Its GI50 is > 100 µM (inactive).

Q: For `NCCCN(CCCN)CCN(CCN(CCCN)CCCN)CCN(CCCN)CCCN`, which GI50 [3] is on record?
A: Its GI50 is > 100 µM (inactive).

Q: What about the GI50 [4] of the same compound?
A: Its GI50 is 23.5 µM (inactive).

Q: And the GI50 [5]?
A: The GI50 was > 100 µM (inactive).

Q: And the GI50 [6]?
A: Its GI50 is > 100 µM (inactive).

Q: And the GI50 [7]?
A: Its GI50 is > 100 µM (inactive).

Q: What about the GI50 [8] of the same compound?
A: Its GI50 is 58.3 µM (inactive).

Q: What does the source list for `CCOC(=O)c1ccc(N(CCOS(C)(=O)=O)CCOS(C)(=O)=O)cc1`?
A: GI50 [2]: 40.6 µM (inactive); GI50 [3]: 21.8 µM (inactive); GI50 [4]: 29.3 µM (inactive); GI50 [5]: 91.2 µM (inactive); GI50 [6]: 52.2 µM (inactive); GI50 [7]: 45.6 µM (inactive); GI50 [8]: 43 µM (inactive)

Q: Which GI50 [2] does the source give for `C/C=C1\C[C@@H]2C(OC)Nc3cc(O)c(OC)cc3C(=O)N2C1` (stereo not given in full) here?
A: The GI50 was 0.00437 µM (active).

Q: And the GI50 [3]?
A: The GI50 was < 0.01 µM (active).

Q: What about the GI50 [4] of the same compound?
A: The GI50 was 0.0142 µM (active).

Q: And the GI50 [5]?
A: Its GI50 is < 0.01 µM (active).

Q: What about the GI50 [6] of the same compound?
A: The GI50 was < 0.01 µM (active).

Q: What about the GI50 [7] of the same compound?
A: Its GI50 is < 0.01 µM (active).

Q: What about the GI50 [1] of the same compound?
A: Its GI50 is 0.00859 µM (active).

Q: What about the GI50 [8] of the same compound?
A: Its GI50 is 0.0141 µM (active).

Q: For `C[C@H]1O[C@@H](O[C@H]2[C@@H](O)C[C@H](O[C@H]3[C@@H](O)C[C@H](O[C@H]4CC[C@@]5(C)[C@H](CC[C@@H]6[C@@H]5CC[C@]5(C)[C@@H](C7=CC(=O)OC7)CC[C@]65O)C4)O[C@@H]3C)O[C@@H]2C)C[C@H](O)[C@@H]1O` [DIGITOXIN], which GI50 [2] is on record?
A: Its GI50 is 0.0189 µM (active).

Q: What about the GI50 [4] of the same compound?
A: Its GI50 is < 0.0378 µM (active).

Q: What about the GI50 [5] of the same compound?
A: The GI50 was 0.129 µM (active).

Q: What about the GI50 [6] of the same compound?
A: The GI50 was 0.0485 µM (active).

Q: What about the GI50 [7] of the same compound?
A: The GI50 was 0.0256 µM (active).
